Experimental data reported in patent US12606551B2, “Salt of tetrahydroisoquinoline derivative, preparation method therefor, and medical use thereof” (ZHEJIANG HISUN PHARMACEUTICAL CO., LTD., priority 2020, dated 2026).

Biological target: T1, AT1R (Homo sapiens, UniProt P30556)
T1 construct: Tb (terbium) label on the receptor; expressed in transfected cells
T1 sequence (P30556 1-359): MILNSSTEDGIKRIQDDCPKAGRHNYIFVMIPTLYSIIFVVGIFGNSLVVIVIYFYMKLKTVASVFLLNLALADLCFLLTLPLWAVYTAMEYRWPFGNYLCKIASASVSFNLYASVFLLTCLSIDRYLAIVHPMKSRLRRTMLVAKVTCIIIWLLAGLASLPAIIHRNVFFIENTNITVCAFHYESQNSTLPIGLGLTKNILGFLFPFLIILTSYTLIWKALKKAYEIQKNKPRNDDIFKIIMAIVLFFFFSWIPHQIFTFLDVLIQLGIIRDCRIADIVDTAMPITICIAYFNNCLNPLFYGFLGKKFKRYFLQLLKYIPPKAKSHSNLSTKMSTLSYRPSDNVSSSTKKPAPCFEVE
Experiment: Antagonistic activity against AT1R (same method with Tb-labeled-AT1R cells)
Format: binding
Experimental: (12) Similarly, the IC50 of the antagonistic activity of the compounds of the present invention against AT1R was tested according to basically the same method, except that Tb-labeled-AT2R cells were replaced by Tb-labeled-AT1R cells.

COc1ccc(COc2c(OC)ccc3c2C[C@@H](C(=O)[O-])N(c2nc4ccc(F)cc4o2)C3)nc1.[Na+] [Compound 1]
IC50: > 10 µM
